{"source": "patent US12637464B2", "about": "“Tetracyclic compounds for treating brain disorders” (The Regents of the University of California, priority 2021, dated 2026)", "key": {"PSYLI2 cells": {"test_system": "PSYLI2 cells", "test": "PsychLight assays (agonist and antagonist mode)", "type": "cell-based", "conditions": "FIG. 3C-3E; agonist mode concentration-response, antagonist mode 1 μM", "protocol": "PsychLight Assays. Psychlight assays were performed using a previously published method. Briefly, glass bottom 96-well plates were coated with 50 μg/mL of poly-D-lysine overnight at room temperature and then washed with Dulbecco's PBS. PSYLI2 cells were suspended in DMEM containing 10% FBS with 5% penicillin-streptomycin, plated at a density of 40,000 cells/well, and incubated (37° C., 5% CO2) for 24 h prior to each experiment. Immediately before an experiment, stock solutions of drugs in DMSO were diluted 1:100 in imaging media distributed across an empty 96-well plate (treatment plate) following a randomized plate map. The imaging media consisted of 1×HBSS containing […] and […]. […] Data were from 2 plates with 2-3 wells being analyzed per plate. […]\nOnce imaging was complete, the images were exported, and analyzed using a custom Python script. […] The mask was generated by calculating the average fluorescence intensity for the entire image and using that value as a threshold. […] The % ΔF/F values for each well were calculated using the following equation: […]\nOnce imaging was complete, the images were exported, and analyzed using a custom Python script. […] The mask was generated by calculating the average fluorescence intensity for the entire image and using that value as a threshold. […]"}, "C57BL/6J mice": {"test_system": "C57BL/6J mice", "test": "Head-twitch response (HTR) assay", "type": "in vivo, mouse", "protocol": "Head-Twitch Response Assay. The HTR assay was performed using equal numbers of male and female C57BL/6J mice. The mice were obtained from The Jackson Laboratory (Sacramento, CA) and were approximately 8-12 weeks old at the time of the experiments. After compound administration, animals were placed into an empty arena (40 cm×40 cm) and filmed for 20 min. The arena was cleaned with 70% ethanol between trials. Animals were given a one-week washout period before being tested again. Animals were tested a maximum of 4 times. All drug treatments were randomized and no animal received the same drug and dose twice. For the blocking experiments, animals were administered (+)-JRT (1 mg/kg) or vehicle (saline) via IP injection and placed in an empty cage for 15 min. Animals were then administered LSD (0.2 mg/kg, IP), placed in the test arena, and filmed for 20 min. Videos were scored later by two blinded observers, and the results were averaged (Pearson correlation coefficient>0.9)."}, "[1]": {"test_system": "dendritic spine density in the PFC", "test": "In vivo spinogenesis (electron microscopy)", "parameters": "species or system C57BL/6J mice", "conditions": "single dose 1 mg/kg, 24 h after administration, 3 animals per group", "protocol": "In Vivo Spinogenesis. Female C57BL/6J mice (Jackson Laboratory, Sacramento, C.A.) were treated with VEH (saline) or (+)-JRT (n=3/group). After 24 h, the animals were sacrificed via transcardial perfusion with oxygenated Ringer's solution followed by a fixative (2% paraformaldehyde, 2.5% glutaraldehyde, 3 mM calcium chloride in 0.1 M cacodylate buffer). Brains were carefully removed from the skull and post-fixed overnight in the same fixative. Brains were then rinsed with PBS and 100 μm coronal sections spanning the prefrontal cortex were collected using a vibrating microtome (Leica). Regions of the infralimbic cortex were microdissected according to the Allen brain atlas and processed further for electron microscopy. Briefly, samples were stained with buffered 1.5% reduced osmium tetroxide for 45 minutes, rinsed thoroughly, further stained with 1% aqueous uranyl acetate overnight at 4° C., dehydrated and embedded in Eponate 12 epoxy resin. A blockface that spanned from the medial cortical surface to the corpus collosum was trimmed and 150-250 serial ultrathin sections (55 nm) were collected onto silicon chips using diamond knives (Diatome) on an ultramicrotome (Leica). Serial sections on silicon chips were loaded into the scanning electron microscope (SEM; Zeiss Sigma VP) for imaging. […] Dendritic spine densities (spines/micron) were calculated for each volume."}}}
{"smiles": "CCN(CC)C(=O)[C@@H]1C=C2c3cccc4ccn(c34)C[C@H]2N(C)C1", "note": "[(+)-JRT]", "values": [{"measurement": "hallucinogenic potential (psychLight)", "setting": "PSYLI2 cells", "result": "low hallucinogenic potential"}, {"measurement": "HTR induced by LSD (antipsychotic properties)", "setting": "C57BL/6J mice; (+)-JRT 1 mg/kg pretreatment, LSD 0.2 mg/kg", "result": "antagonizing a HTR induced by LSD"}, {"measurement": "hallucinogenic potential (mouse head-twitch response, agonist mode)", "setting": "C57BL/6J mice; male and female mice, agonist mode", "result": "low hallucinogenic potential"}, {"measurement": "dendritic spine density in the PFC", "setting": "[1]", "result": "increases dendritic spine density"}]}
